According to ChEMBL document CHEMBL5506008, “Synthesis and biological evaluation of 1-phenyl-tetrahydro-β-carboline-based first dual PRMT5/EGFR inhibitors as potential anticancer agents” (Eur J Med Chem, 2024):
Active and inactive are the calls of the source. No cut-off for these calls is given here.

Columns and labels:
[1] = target: T1, Protein arginine N-methyltransferase 5 (Homo sapiens, UniProt O14744); experiment: Inhibition of PRMT5 (unknown origin) by radiometric-based scintillation proximity assay
[2] = target: Epidermal growth factor receptor (Homo sapiens, UniProt P00533); experiment: Inhibition of wild type GST-tagged EGFR catalytic domain (unknown origin) expressed in insect cells using poly(Glu-Tyr) as substrate incubated for 6 mins by ELISA; set-up: species or system Insect cell
[3] = target: Protein arginine N-methyltransferase 1 (Homo sapiens, UniProt Q99873); experiment: Inhibition of PRMT1 (unknown origin) using [3H]SAM as substrate preincubated for 15 mins followed by substrate addition and measured after 60 mins by microbeta scintillation counting analysis
[4] = target: T2, Histone-arginine methyltransferase CARM1 (Homo sapiens, UniProt Q86X55); experiment: Inhibition of PRMT4 (unknown origin) preincubated for 15 mins followed by substrate addition and measured after 60 mins by AlphaLISA assay
T2 sequence (Q86X55 whole entry): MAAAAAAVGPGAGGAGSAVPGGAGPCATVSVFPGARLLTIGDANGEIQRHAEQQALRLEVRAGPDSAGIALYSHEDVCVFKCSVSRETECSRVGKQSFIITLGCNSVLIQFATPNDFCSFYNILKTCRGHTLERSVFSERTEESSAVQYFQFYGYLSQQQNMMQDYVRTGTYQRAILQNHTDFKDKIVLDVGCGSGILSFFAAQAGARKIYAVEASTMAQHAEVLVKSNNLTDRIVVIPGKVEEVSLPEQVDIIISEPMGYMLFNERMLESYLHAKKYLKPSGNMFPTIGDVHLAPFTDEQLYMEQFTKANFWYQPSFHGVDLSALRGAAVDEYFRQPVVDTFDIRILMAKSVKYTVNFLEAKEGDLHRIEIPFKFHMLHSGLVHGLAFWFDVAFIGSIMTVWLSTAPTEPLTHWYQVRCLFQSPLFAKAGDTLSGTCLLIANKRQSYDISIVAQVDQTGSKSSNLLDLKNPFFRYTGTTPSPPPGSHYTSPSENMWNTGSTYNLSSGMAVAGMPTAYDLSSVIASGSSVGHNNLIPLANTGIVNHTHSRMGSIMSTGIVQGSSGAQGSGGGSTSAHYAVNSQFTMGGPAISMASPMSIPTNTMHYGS

A549 = experiment: Antiproliferative activity against human A549 cells assessed as inhibition of cell growth by CCK-8 assay
MCF7 [5] = experiment: Antiproliferative activity against human MCF7 cells assessed as inhibition of cell growth by CCK-8 assay
HeLa = experiment: Antiproliferative activity against human HeLa cells assessed as inhibition of cell growth by CCK-8 assay
MDA-MB-231 = experiment: Antiproliferative activity against human MDA-MB-231 cells assessed as inhibition of cell growth by CCK-8 assay
HepG2 = experiment: Antiproliferative activity against human HepG2 cells assessed as inhibition of cell growth by CCK-8 assay
[6] = Metabolic stability in human liver microsomes assessed as compound remaining at […] measured after 30 mins in presence of NADPH by LC-MS/MS analysis; format: ADME, Microsome; settings: read-out: Stability
[7] = Metabolic stability in rat liver microsomes assessed as compound remaining at […] measured after 30 mins in presence of NADPH by LC-MS/MS analysis; format: ADME, Microsome; settings: read-out: Stability
[8] = target: Receptor tyrosine-protein kinase erbB-4 (Homo sapiens, UniProt Q15303); experiment: Inhibition of wild type GST-tagged HER4 catalytic domain (unknown origin) expressed in insect cells using poly(Glu-Tyr) as substrate incubated for 6 mins by ELISA; set-up: species or system Insect cell
[9] = target: T1, Protein arginine N-methyltransferase 5; experiment: Inhibition of PRMT5 in human MCF7 cells using SmD3 as substrate assessed as reduction in symmetric arginine dimethylation by measuring reduction in SmD3me2 level incubated for 72 hrs by Western blot analysis; format: cell-based; settings: dose 3.75-15 µM
[10] = Volume of distribution in male Sprague-Dawley rat at 10 mg/kg, po administered as single dose by LC-MS/MS analysis; format: ADME, organism-based; settings: in vivo
MCF7 [11] = experiment: Induction of cell cycle arrest in human MCF7 cells assessed as accumulation of cells at G1 phase at 3.75 uM incubated for 48 hrs by PI/RNase staining based flow cytometry analysis (reference value: 48.01%); format: functional
MCF7 [12] = experiment: Induction of cell cycle arrest in human MCF7 cells assessed as accumulation of cells at S phase at 3.75 uM incubated for 48 hrs by PI/RNase staining based flow cytometry analysis (reference value: 44.87%); format: functional
MCF7 [13] = experiment: Induction of cell cycle arrest in human MCF7 cells assessed as accumulation of cells at G2 phase at 3.75 uM incubated for 48 hrs by PI/Rnase staining based flow cytometry analysis (reference value: […]%); format: functional
MCF7 [14] = experiment: Induction of cell cycle arrest in human MCF7 cells assessed as accumulation of cells at G1 phase at 7.5 uM incubated for 48 hrs by PI/RNase staining based flow cytometry analysis (reference value: 48.01%); format: functional
MCF7 [15] = experiment: Induction of cell cycle arrest in human MCF7 cells assessed as accumulation of cells at S phase at 7.5 uM incubated for 48 hrs by PI/RNase staining based flow cytometry analysis (reference value: 44.87%); format: functional
MCF7 [16] = experiment: Induction of cell cycle arrest in human MCF7 cells assessed as accumulation of cells at G2 phase at 7.5 uM incubated for 48 hrs by PI/Rnase staining based flow cytometry analysis (reference value: […]%); format: functional
MCF7 [17] = experiment: Induction of apoptosis in human MCF7 cells assessed as live cells at 3.75 uM measured after 48 hrs by Annexin V-FITC staining based flow cytometry analysis (reference value: 99.26%); format: functional
MCF7 [18] = experiment: Induction of apoptosis in human MCF7 cells assessed as early apoptotic cells at 3.75 uM measured after 48 hrs by Annexin V-FITC staining based flow cytometry analysis (reference value: 0.58%); format: functional
MCF7 [19] = experiment: Induction of apoptosis in human MCF7 cells assessed as late apoptotic cells at 3.75 uM measured after 48 hrs by Annexin V-FITC staining based flow cytometry analysis (reference value: 0.14%); format: functional
MCF7 [20] = experiment: Induction of apoptosis in human MCF7 cells assessed as dead cells at 3.75 uM measured after 48 hrs by Annexin V-FITC staining based flow cytometry analysis (reference value: 0.02%); format: functional
MCF7 [21] = experiment: Induction of apoptosis in human MCF7 cells assessed as live cells at 7.5 uM measured after 48 hrs by Annexin V-FITC staining based flow cytometry analysis (reference value: 99.26%); format: functional
MCF7 [22] = experiment: Induction of apoptosis in human MCF7 cells assessed as early apoptotic cells at 7.5 uM measured after 48 hrs by Annexin V-FITC staining based flow cytometry analysis (reference value: 0.58%); format: functional
MCF7 [23] = experiment: Induction of apoptosis in human MCF7 cells assessed as late apoptotic cells at 7.5 uM measured after 48 hrs by Annexin V-FITC staining based flow cytometry analysis (reference value: 0.14%); format: functional
MCF7 [24] = experiment: Induction of apoptosis in human MCF7 cells assessed as dead cells at 7.5 uM measured after 48 hrs by Annexin V-FITC staining based flow cytometry analysis (reference value: 0.02%); format: functional
MCF7 [25] = experiment: Induction of apoptosis in human MCF7 cells assessed as live cells at 15 uM measured after 48 hrs by Annexin V-FITC staining based flow cytometry analysis (reference value: 99.26%); format: functional
MCF7 [26] = experiment: Induction of apoptosis in human MCF7 cells assessed as early apoptotic cells at 15 uM measured after 48 hrs by Annexin V-FITC staining based flow cytometry analysis (reference value: 0.58%); format: functional
MCF7 [27] = experiment: Induction of apoptosis in human MCF7 cells assessed as late apoptotic cells at 15 uM measured after 48 hrs by Annexin V-FITC staining based flow cytometry analysis (reference value: 0.14%); format: functional
MCF7 [28] = experiment: Induction of apoptosis in human MCF7 cells assessed as dead cells at 15 uM measured after 48 hrs by Annexin V-FITC staining based flow cytometry analysis (reference value: 0.02%); format: functional
[29] = AUC (0 to 24 hrs) in male Sprague-Dawley rat at 10 mg/kg, po administered as single dose by LC-MS/MS analysis; format: ADME, organism-based; settings: in vivo
[30] = AUC (0 to infinity) in male Sprague-Dawley rat at 10 mg/kg, po administered as single dose by LC-MS/MS analysis; format: ADME, organism-based; settings: in vivo
[31] = Half life in male Sprague-Dawley rat at 10 mg/kg, po administered as single dose by LC-MS/MS analysis; format: ADME, organism-based; settings: in vivo
[32] = Tmax in male Sprague-Dawley rat at 10 mg/kg, po administered as single dose by LC-MS/MS analysis; format: ADME, organism-based; settings: in vivo
[33] = Cmax in male Sprague-Dawley rat at 10 mg/kg, po administered as single dose by LC-MS/MS analysis; format: ADME, organism-based; settings: in vivo
[34] = Clearance in male Sprague-Dawley rat at 10 mg/kg, po administered as single dose by LC-MS/MS analysis; format: ADME, organism-based; settings: in vivo
[35] = Oral bioavailability in male Sprague-Dawley rat at 10 mg/kg administered as single dose by LC-MS/MS analysis; format: ADME, organism-based; settings: in vivo
[36] = AUC (0 to 24 hrs) in male Sprague-Dawley rat at 2 mg/kg, iv administered via tail vein by LC-MS/MS analysis; format: ADME, organism-based; settings: in vivo
[37] = AUC (0 to infinity) in male Sprague-Dawley rat at 2 mg/kg, iv administered via tail vein by LC-MS/MS analysis; format: ADME, organism-based; settings: in vivo
[38] = Half life in male Sprague-Dawley rat at 2 mg/kg, iv administered via tail vein by LC-MS/MS analysis; format: ADME, organism-based; settings: in vivo
[39] = Cmax in male Sprague-Dawley rat at 2 mg/kg, iv administered via tail vein by LC-MS/MS analysis; format: ADME, organism-based; settings: in vivo
[40] = Clearance in male Sprague-Dawley rat at 2 mg/kg, iv administered via tail vein by LC-MS/MS analysis; format: ADME, organism-based; settings: in vivo
[41] = Volume of distribution in male Sprague-Dawley rat at 2 mg/kg, iv administered via tail vein by LC-MS/MS analysis; format: ADME, organism-based; settings: in vivo
[42] = Bioavailability in male Sprague-Dawley rat at 2 mg/kg, iv administered via tail vein by LC-MS/MS analysis; format: ADME, organism-based; settings: in vivo
MCF7 [43] = experiment: Antitumor activity against orthotopic human MCF7 cells xenografted in CB17SCID mouse assessed as inhibition of tumor growth at 10 to 20 mg/kg, po qd administered once daily for 21 days starting from 3 days post tumor inoculation and measured every day by calipers method; format: functional, organism-based; settings: dose 10-20 mg/kg, time 21.0 day

T1 sequence (O14744 whole entry, the tested form may be a part): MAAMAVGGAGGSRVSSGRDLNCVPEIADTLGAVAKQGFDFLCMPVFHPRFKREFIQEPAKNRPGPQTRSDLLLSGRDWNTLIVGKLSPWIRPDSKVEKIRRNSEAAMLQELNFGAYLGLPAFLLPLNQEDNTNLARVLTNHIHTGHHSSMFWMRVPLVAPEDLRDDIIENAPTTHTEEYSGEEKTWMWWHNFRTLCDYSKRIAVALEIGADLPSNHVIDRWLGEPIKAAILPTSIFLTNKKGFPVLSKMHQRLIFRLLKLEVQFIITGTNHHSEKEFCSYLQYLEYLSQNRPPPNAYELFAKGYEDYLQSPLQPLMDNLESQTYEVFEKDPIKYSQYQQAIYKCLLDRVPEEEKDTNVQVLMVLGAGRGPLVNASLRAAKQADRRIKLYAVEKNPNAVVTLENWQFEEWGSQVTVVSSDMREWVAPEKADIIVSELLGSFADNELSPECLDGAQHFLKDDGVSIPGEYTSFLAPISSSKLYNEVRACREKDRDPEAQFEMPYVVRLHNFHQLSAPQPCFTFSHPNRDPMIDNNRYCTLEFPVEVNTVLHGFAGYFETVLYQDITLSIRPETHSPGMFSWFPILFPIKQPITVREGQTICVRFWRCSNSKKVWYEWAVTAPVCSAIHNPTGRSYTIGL
Sequence of Protein arginine N-methyltransferase 1 (Q99873 whole entry): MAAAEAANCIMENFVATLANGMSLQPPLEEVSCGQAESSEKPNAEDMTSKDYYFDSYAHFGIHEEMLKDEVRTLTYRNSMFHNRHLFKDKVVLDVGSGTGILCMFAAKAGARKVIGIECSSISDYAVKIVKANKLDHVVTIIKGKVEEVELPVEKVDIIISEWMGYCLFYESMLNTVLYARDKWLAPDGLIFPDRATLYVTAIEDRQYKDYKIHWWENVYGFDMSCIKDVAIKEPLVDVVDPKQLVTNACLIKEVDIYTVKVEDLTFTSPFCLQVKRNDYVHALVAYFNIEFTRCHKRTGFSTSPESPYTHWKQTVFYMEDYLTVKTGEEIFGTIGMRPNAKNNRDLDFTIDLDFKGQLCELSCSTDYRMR
Sequence of Receptor tyrosine-protein kinase erbB-4 (Q15303 whole entry, the tested form may be a part): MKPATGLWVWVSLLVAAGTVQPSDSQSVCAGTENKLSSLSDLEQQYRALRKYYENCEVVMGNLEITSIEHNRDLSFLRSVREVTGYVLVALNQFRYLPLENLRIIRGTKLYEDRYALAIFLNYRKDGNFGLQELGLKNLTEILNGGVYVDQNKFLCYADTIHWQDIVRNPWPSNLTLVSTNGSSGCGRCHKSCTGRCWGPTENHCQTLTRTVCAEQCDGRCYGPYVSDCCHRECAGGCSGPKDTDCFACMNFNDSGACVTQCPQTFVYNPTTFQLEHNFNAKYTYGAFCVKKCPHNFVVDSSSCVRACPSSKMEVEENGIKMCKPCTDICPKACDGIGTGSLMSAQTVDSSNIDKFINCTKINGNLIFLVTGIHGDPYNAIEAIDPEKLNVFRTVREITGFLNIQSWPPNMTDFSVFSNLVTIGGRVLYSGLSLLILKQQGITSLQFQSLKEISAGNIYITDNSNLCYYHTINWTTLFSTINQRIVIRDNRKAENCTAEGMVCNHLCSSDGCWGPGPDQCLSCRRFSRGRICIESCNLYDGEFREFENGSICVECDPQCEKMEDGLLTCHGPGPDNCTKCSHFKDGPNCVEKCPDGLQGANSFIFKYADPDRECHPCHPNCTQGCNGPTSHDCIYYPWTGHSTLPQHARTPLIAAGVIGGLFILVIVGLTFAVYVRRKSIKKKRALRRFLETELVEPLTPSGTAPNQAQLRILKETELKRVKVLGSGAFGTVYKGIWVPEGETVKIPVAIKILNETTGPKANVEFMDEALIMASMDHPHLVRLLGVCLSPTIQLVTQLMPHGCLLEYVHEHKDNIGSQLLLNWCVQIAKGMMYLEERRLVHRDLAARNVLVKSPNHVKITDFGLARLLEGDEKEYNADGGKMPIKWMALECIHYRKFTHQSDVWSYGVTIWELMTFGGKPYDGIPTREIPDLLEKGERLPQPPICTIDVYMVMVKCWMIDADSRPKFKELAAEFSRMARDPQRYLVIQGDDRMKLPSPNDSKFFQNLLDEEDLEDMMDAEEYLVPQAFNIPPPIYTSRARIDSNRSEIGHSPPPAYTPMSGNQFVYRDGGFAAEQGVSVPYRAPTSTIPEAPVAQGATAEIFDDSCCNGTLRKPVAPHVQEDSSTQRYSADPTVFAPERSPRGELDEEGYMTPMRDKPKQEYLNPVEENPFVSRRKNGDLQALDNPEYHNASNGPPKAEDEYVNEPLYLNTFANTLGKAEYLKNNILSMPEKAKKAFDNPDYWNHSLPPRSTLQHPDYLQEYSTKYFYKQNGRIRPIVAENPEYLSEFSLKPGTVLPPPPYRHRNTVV
Sequence of Epidermal growth factor receptor (P00533 whole entry, the tested form may be a part): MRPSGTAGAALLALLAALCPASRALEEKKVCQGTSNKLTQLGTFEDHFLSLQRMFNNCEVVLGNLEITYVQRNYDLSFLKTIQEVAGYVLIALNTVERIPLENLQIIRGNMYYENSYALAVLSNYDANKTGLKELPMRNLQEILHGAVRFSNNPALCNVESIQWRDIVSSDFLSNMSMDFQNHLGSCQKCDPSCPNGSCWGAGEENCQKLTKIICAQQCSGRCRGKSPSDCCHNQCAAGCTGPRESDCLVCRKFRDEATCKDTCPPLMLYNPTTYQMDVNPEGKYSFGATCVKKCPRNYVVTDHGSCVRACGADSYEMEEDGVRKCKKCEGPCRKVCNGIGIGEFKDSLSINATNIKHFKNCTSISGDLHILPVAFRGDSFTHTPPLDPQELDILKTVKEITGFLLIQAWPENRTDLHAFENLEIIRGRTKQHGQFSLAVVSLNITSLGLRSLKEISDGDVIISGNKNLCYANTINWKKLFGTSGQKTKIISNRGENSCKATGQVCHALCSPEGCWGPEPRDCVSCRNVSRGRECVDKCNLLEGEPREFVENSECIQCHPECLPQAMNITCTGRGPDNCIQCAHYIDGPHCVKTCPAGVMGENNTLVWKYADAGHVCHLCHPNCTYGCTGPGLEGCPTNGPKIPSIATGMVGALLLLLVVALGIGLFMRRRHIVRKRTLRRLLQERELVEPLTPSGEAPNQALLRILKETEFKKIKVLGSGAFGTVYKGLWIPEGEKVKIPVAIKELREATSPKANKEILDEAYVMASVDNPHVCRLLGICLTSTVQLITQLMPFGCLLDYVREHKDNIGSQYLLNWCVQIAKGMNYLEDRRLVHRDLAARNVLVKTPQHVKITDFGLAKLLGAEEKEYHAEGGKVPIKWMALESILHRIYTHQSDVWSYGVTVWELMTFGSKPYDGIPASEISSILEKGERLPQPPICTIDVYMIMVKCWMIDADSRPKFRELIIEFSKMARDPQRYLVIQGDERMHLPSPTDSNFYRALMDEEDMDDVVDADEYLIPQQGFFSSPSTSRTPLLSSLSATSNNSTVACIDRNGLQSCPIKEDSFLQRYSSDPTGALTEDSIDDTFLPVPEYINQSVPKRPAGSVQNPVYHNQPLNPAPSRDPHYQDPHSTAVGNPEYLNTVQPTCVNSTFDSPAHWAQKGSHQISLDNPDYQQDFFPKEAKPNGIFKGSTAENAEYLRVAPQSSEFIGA

`COC(=O)c1ccc(COc2ccc(C3NCCc4c3[nH]c3ccccc43)cc2OC)cc1` (stereo unspecified) gave an IC50 [1] of 21.3 µM, an IC50 [2] of 52 µM and an IC50 [3] greater than 100 µM. It also gave an IC50 [4] greater than 100 µM, an IC50 (A549) of 18.7 µM and an IC50 (MCF7 [5]) of 13.7 µM. It also gave an IC50 (HeLa) of 13.4 µM, an IC50 (MDA-MB-231) greater than 50 µM and an IC50 (HepG2) greater than 50 µM. It also gave a remaining at 0.5 h [6] of 10.3% and a remaining at 0.5 h [7] of 5.2%.

Work on `COc1cc(C2NCCc3c2[nH]c2ccccc32)ccc1OCc1cc(C(F)(F)F)cc(C(F)(F)F)c1` (stereo unspecified) yielded an IC50 [1] of 15.5 µM, an IC50 [3] greater than 100 µM and an IC50 [8] of 86.5 µM. For the same compound, the IC50 (A549) was 9.76 µM, the IC50 (MCF7 [5]) was 5.74 µM and the IC50 (HeLa) was 7.99 µM. The IC50 (MDA-MB-231) was 6.55 µM, the IC50 (HepG2) was 25.4 µM and the inhibition [9] was “Dose-Dependent Effect”. For the same compound, the Vd [10] was 38.5 L/kg, the Activity (MCF7 [11]) was 54.85% and the Activity (MCF7 [12]) was 40.55%. It also gave an Activity (MCF7 [13]) of 4.25%, an Activity (MCF7 [14]) of 62.98% and an Activity (MCF7 [15]) of 36.77%. For the same compound, the Activity (MCF7 [16]) was 0.26%, the Activity (MCF7 [17]) was 98.07% and the Activity (MCF7 [18]) was 1.51%. For the same compound, the Activity (MCF7 [19]) was 0.4%, the Activity (MCF7 [20]) was 0.02% and the Activity (MCF7 [21]) was 97.31%. The Activity (MCF7 [22]) was 2.32%, the Activity (MCF7 [23]) was 0.37% and the Activity (MCF7 [24]) was 0%. The Activity (MCF7 [25]) was 96.45%, the Activity (MCF7 [26]) was 3.07% and the Activity (MCF7 [27]) was 0.48%. The Activity (MCF7 [28]) was 0.01%, the remaining at 0.5 h [6] was 85.9% and the remaining at 0.5 h [7] was 80.3%. For the same compound, the AUC(0-t) [29] was 1960 ng·h/mL, the AUC(0-inf) [30] was 2110 ng·h/mL and the half-life [31] was 5.7 h. The Tmax [32] was 2 h, the Cmax [33] was 167 ng/mL and the CL/F [34] was 78.3 mL/min/kg. The bioavailability [35] was 30.6%, the AUC(0-t) [36] was 1280 ng·h/mL and the AUC(0-inf) [37] was 1330 ng·h/mL. The half-life [38] was 4.9 h, the Cmax [39] was 187 ng/mL and the clearance [40] was 25 mL/min/kg. For the same compound, the Vd [41] was 10.8 L/kg, the F [42] was 100% and the Activity (MCF7 [43]) was “Active”.
